According to US20120070511A1, “MITOCHONDRIAL INHIBITORS AND USES THEREOF” (priority 2009, published 2012):

Legend:
Format in all cases: cell-based
MM.1S and REH cell lines = test: Mitochondrial Ca2+ (X-rhod-1) after CCCP; conditions: 10 μM CCCP; both cell types
Protocol: (§1) […]. A) ψm potential, B) mitochondrial Ca^2+ and C) cytoplasmic Ca^2+ levels were measured using the fluorochromes JC-1, X-rhod-1 and indo-1, respectively. After 10 min of initial baseline measurement, CCCP was added into each well to achieve a final concentration of 10 μM and changes in fluorescence intensity was assayed for up to 2 h. In the graphs the time point of CCCP addition is marked as ‘0’. The graph is an average of triplicate samples with +SD.
Measurement of cytoplasmic and mitochondrial calcium: Cytoplasmic Ca^2+ concentration was estimated by using the cell permeant ratiometric fluorochrome indo-1-AM (Invitrogen, Carlsbad, Calif., USA) while mitochondrial Ca^2+ was measured by X-Rhod-1-AM (Invitrogen, Carlsbad, Calif., USA). In the latter assay, to normalize mitochondrial Ca^2+ signal to mitochondria number, Mitotracker Green (Invitrogen, Carlsbad, Calif., USA) fluorescence was simultaneously analyzed. Experiments were performed in cells loaded with either 2.5 μM of indo-1 or 5 μM X-rhod-1 and 250 nM of Mitotracker at 37° C. for 45 min. Cells were, then, centrifuged at 400 g for 5 min and resuspended in their growth medium followed by distribution of 100 μl of aliquots into 96 well optical bottom plates (Nalge Nunc, Int., Rochester, N.Y., USA) and fluorescence was measured by Spectra Max Gemini Plus (Molecular Devices, Sunnyvale, Calif., USA). […]

REH cells [1] = test: Western blot after 24 h CCCP (UPR, AMPK pathway, caspase 3)
Protocol: A) Reversal of CCCP induced toxicity by either 10 μM BAPTA-AM or 50 μM of Z-VAD was investigated using trypan blue exclusion assays. The bars represent the average of triplicate samples +SD. B) ATP levels were assayed following 6 h of treatment with indicated concentrations of CCCP. The bars represent the average of triplicate samples +SD. C) Induction of UPR, activation of AMPK pathway and cleavage of caspase 3 was analyzed by western blots following 24 h treatment with indicated concentrations of CCCP in MM.1S and REH cell lines. β-Actin was used as a loading control. D) The quantification of phosphorylated AMPK and total AMPK bands in the previous panel was done using a Bio-Rad gel reader which employs Quality I software. The bars represent the fold increase in the ratio of p-AMPK/AMPK in treated versus untreated samples from three independent experiments +SD.
Western blot analysis: Western blots were performed. Membranes were probed with monoclonal rabbit anti-GRP94, anti GRP-78, anti-PDI, anti-CHOP/GADD153, anti-cleaved caspase 3 (Cell Signaling, Danvers, Mass., USA) and monoclonal mouse anti-β-actin (Sigma, St. Louis, Mo., USA).

[2] = tested on: MM cell lines (MM.1S, 8226, KMS-11)
Protocol: Cytotoxicity assay: Cells were incubated for 24 h at 37° C. in 5% CO2 at which time drug treatments began and continued for 24 h. At this time cells were transferred to a tube followed by centrifugation at 400 g for 5 min. The pellets were resuspended in 1 ml of Hanks solution and analyzed by Vi-Cell (Beckman Coulter, Fullerton, Calif., USA) cell viability analyzer.

REH cells [3] = test: Cytoplasmic Ca2+ (indo-1) after CCCP; conditions: 10 μM CCCP
Protocol: as §1
(§2) Measurement of cytoplasmic and mitochondrial calcium: Cytoplasmic Ca^2+ concentration was estimated by using the cell permeant ratiometric fluorochrome indo-1-AM (Invitrogen, Carlsbad, Calif., USA) while mitochondrial Ca^2+ was measured by X-Rhod-1-AM (Invitrogen, Carlsbad, Calif., USA). In the latter assay, to normalize mitochondrial Ca^2+ signal to mitochondria number, Mitotracker Green (Invitrogen, Carlsbad, Calif., USA) fluorescence was simultaneously analyzed. Experiments were performed in cells loaded with either 2.5 μM of indo-1 or 5 μM X-rhod-1 and 250 nM of Mitotracker at 37° C. for 45 min. Cells were, then, centrifuged at 400 g for 5 min and resuspended in their growth medium followed by distribution of 100 μl of aliquots into 96 well optical bottom plates (Nalge Nunc, Int., Rochester, N.Y., USA) and fluorescence was measured by Spectra Max Gemini Plus (Molecular Devices, Sunnyvale, Calif., USA). The average of triplicates from untreated samples was used as control reading and increase in cytoplasmic or mitochondrial Ca^2+ was calculated as percent increase from control samples.

MM.1S cells = test: Cytoplasmic Ca2+ (indo-1) after CCCP; conditions: 10 μM CCCP
Protocol: as §1, §2

## N#CC(C#N)=NNc1cccc(Cl)c1 [CCCP]
MM.1S and REH cell lines
  mitochondrial Ca2+: lowering of Ca^2+ concentration in the mitochondrial matrix
REH cells [1]; 24 h, REH
  CCCP concentration required for similar increase of CHOP/GADD153: at least 10 μM
REH cells [1]; REH
  AMPK phosphorylation at higher doses: continues to increase
REH cells [1]; REH, even at the 10 μM dose
  cleaved caspase 3: no cleaved caspase 3 can be detected
REH cells [1]; highest dose (10 μM) CCCP, REH compared to MM.1S
  AMPK phosphorylation: more phosphorylated
[2]; 24 h, all 3 MM cell lines
  cytotoxicity (cell death): more toxic to MM cells as compared to non-myeloma cells
[2]; concentrations of FIG. 13, caspase 3 cleavage and percent of cell death
  cell death compared among mitochondrial inhibitors: more toxic than either antimycin A or oligomycin
REH cells [3]
  cytoplasmic Ca2+ levels directly after addition: go up in both cell types
  cytoplasmic Ca2+ levels later (after clearance phase): go back to control levels
MM.1S cells
  cytoplasmic Ca2+ levels directly after addition: go up in both cell types
  cytoplasmic Ca2+ levels later (after clearance phase): remain elevated
